Patent US7105520B2, “Phenylalanine derivatives” (Ajinomoto Co., Inc., priority 2000, dated 2006)

Legend:
integrin α 4β7 = molecular target: T1, integrin α 4β7 (Homo sapiens, UniProt P13612+P26010); experiment: VCAM antagonistic activity (VCAM-1/α4β7 binding assay), RPMI-8866 cells binding to VCAM-1; format: cell-based; conditions: RPMI-8866 cells (human B cells) binding to recombinant human VCAM-1; binding buffer containing 4 mM of MnCl2; room temperature, 30 minutes; read-out: VCAM-1/α 4 β 7 linking antagonization activity IC50
T1 construct: lymphoma cell strain RPMI-8866 of human B cells, known to express integrin α 4β7; endogenous in cells; host or cells: RPMI-8866 (human B lymphoma cell line)
T1 sequence (P13612 34-1032): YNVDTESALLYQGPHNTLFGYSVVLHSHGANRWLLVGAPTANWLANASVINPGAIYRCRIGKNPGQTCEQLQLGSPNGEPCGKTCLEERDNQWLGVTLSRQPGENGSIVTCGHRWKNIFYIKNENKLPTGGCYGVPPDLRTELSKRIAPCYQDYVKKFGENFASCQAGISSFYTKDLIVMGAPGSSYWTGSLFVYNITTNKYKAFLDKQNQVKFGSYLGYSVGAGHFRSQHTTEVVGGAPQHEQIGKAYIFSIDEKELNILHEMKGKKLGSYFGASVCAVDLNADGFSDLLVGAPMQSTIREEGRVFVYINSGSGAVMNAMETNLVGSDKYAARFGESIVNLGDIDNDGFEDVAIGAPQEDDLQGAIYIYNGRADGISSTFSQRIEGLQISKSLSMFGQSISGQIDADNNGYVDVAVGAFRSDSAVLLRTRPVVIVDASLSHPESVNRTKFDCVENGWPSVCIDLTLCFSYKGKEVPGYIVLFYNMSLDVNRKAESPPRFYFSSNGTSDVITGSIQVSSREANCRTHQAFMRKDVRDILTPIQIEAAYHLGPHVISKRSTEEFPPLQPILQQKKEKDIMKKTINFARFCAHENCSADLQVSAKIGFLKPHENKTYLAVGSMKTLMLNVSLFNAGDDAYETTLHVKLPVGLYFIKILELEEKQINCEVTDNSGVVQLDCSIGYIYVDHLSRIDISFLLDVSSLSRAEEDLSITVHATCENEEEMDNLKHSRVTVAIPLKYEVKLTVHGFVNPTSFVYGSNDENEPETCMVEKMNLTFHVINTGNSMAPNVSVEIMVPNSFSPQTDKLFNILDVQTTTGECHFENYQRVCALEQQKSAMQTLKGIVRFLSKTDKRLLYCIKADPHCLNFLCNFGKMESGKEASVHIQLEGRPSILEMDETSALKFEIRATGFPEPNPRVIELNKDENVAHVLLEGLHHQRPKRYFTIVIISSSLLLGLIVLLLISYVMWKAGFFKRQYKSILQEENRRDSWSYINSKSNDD
T1 sequence (P26010 20-798): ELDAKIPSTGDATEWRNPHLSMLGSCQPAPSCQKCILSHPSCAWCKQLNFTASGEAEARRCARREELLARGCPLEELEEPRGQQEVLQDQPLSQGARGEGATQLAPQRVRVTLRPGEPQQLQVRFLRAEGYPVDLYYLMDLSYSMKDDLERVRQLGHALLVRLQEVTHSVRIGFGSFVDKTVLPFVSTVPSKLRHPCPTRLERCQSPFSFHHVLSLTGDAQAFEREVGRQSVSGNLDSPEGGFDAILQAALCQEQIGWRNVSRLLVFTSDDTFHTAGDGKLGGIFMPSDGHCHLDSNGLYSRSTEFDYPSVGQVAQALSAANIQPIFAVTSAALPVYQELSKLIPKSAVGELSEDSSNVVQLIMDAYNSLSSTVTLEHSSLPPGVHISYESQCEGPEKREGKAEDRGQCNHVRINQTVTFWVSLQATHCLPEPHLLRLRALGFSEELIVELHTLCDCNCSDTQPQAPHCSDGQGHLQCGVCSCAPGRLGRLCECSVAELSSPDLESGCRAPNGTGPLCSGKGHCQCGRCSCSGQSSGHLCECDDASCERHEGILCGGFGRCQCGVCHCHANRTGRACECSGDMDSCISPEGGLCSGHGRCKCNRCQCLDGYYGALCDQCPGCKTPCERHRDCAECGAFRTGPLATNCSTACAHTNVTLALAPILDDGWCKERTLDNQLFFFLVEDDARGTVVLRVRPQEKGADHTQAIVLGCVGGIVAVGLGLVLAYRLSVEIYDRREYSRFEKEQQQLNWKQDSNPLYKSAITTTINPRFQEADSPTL
Procedure: (Test Example) VCAM Antagonistic Activity (VCAM-1/α4β7 Binding Assay):
The capacity of a test substance antagonistic to the binding of lymphoma cell strain RPMI-8866 of human B cells, known to express integrin α 4β7, to VCAM-1 was determined.
(§1) 100 μl/well of a solution (500 ng/ml) of recombinant human VCAM-1 (R & D systems) solution diluted with buffer A (0.1 M NaHCO3, pH 9.6) was added to a micro titer plate having 96 wells (Nunc Maxisorp). After the incubation at 4° C. overnight, unbound VCAM-1 was removed by washing once with PBS. After completion of the washing, a buffer (buffer B) obtained by diluting Block Ace® (Dainippon Pharmaceutical Co., Ltd.) with PBS to ¼ concentration was added in an amount of 150 μl/well. After the incubation at room temperature for 1 hour, buffer B was removed and the plate was washed with PBS once.
RPMI-8866 cells were incubated in DMEM containing 10 μg/ml of Calcein-AM (Wako Pure Chemical Industries, Ltd.) at 37° C. for 30 minutes to label with fluorescence. The cells were again suspended in a binding buffer (20 mM HEPES, DMEM containing 0.1% BSA) containing 4 mM of MnCl2.
(§2) 50 μl of a test substance of various concentrations obtained by the dilution with the binding buffer was added to the plate. Immediately thereafter, 50 μl (final volume: 100 μl/well) of the fluorescent RPMI-8866 cells (4×10^6 cells/ml) were added thereto, and they were incubated at room temperature for 30 minutes. After the shaking on a plate shaker (IKA MTS-4) at 800 rpm for 30 seconds, the solution was immediately removed to remove the unbound cells. The fluorescence quantity of the bound cells remaining in the wells was determined with a fluorescent plate reader (Wallac 1420 ARVO multi-label counter) (filter excitation wave length: 485 nm, emission wave length: 535 nm). The fluorescent strength thus obtained is proportional to the number of RPMI-8866 cells bound to VCAM-1 and remaining on the plate. The binding rate of each test material in various concentrations was determined while the fluorescent strength of the test material-free well was determined to be 100%. The concentration IC50 for the 50% binding inhibition was calculated.

integrin α 4β1 = molecular target: T2, integrin α 4β1 (Homo sapiens, UniProt P05556+P13612); experiment: VCAM antagonistic activity (VCAM-1/α4β1 binding assay), Jurkat cells binding to VCAM-1; format: cell-based; conditions: Jurkat cells (human T cells) binding to recombinant human VCAM-1; room temperature, 30 minutes; read-out: VCAM-1/α 4 β 1 linking antagonization activity IC50
T2 construct: cell strain Jurkat (ATCC TIB-152) of human T cells, known to express integrin α 4β1; host or cells: Jurkat (human T cell line)
T2 sequence (P05556 21-798, one chain of several): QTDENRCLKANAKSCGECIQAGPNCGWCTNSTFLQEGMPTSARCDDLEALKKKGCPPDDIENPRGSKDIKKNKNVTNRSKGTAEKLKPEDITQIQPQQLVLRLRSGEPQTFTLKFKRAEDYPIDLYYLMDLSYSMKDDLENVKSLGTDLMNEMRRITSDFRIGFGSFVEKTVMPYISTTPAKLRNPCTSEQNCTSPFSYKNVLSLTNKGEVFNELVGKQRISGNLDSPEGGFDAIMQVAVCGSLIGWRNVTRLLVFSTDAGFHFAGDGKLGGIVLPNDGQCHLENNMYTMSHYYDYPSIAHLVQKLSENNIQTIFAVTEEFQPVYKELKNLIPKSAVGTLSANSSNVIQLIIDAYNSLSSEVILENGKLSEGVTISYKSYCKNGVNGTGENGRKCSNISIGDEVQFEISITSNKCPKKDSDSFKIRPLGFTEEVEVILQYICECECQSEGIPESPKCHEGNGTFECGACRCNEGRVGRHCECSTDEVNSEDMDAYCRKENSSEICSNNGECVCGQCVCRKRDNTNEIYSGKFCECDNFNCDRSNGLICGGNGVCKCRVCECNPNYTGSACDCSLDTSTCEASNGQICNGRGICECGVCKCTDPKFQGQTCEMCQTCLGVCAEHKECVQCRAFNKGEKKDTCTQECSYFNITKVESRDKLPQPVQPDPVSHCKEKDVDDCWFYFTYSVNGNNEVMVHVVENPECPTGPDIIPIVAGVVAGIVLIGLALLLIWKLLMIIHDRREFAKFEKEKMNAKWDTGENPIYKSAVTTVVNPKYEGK
Procedure: (Test Example) VCAM Antagonistic Activity (VCAM-1/α4β1 Binding Assay):
The capacity of a test substance antagonistic to the binding of cell strain Jurkat (ATCC TIB-152) of human T cells, known to express integrin α 4β1, to VCAM-1 was determined.
as §1
Jurkat cells were washed with Dulbecco modified Eagle medium (SIGMA, hereinafter referred to as “DMEM”) twice and then incubated in DMEM containing 10 μg/ml of Calcein-AM (Wako Pure Chemical Industries, Ltd.) at 37° C. in dark place for 30 minutes to label with fluorescence. The cells were again suspended in a binding buffer (20 mM HEPES, DMEM containing 0.1% BSA).
as §2, with “Jurkat” for “RPMI-8866”

SMILES	IC50 (integrin α 4β7)	IC50 (integrin α 4β1)
CSc1ncc(Cl)c(C(=O)Nc2ccc(C[C@H](NC(=O)c3cc(N(CCN(C(C)=O)C(C)C)C(C)C)ccc3[N+](=O)[O-])C(=O)O)cc2)n1 [Example 30]	0.0053 µM	0.087 µM
CCNC/C=C/CN(CC)c1ccc([N+](=O)[O-])c(C(=O)NC(Cc2ccc(OCc3c(Cl)cccc3Cl)cc2)C(=O)O)c1 (stereo not shown) [Example 6]	0.15 µM	4.8 µM
O=C1CCN(c2ccc([N+](=O)[O-])c(C(=O)NC(Cc3ccc(OCc4c(Cl)cccc4Cl)cc3)C(=O)O)c2)CC1 (stereo not shown) [Example 21]	0.16 µM	3.3 µM
CC(C)NCCN(c1ccc([N+](=O)[O-])c(C(=O)NC(Cc2ccc(OCc3c(Cl)cccc3Cl)cc2)C(=O)O)c1)C(C)C (stereo not shown) [Example 2, N-(3-(N-isopropylaminoethyl-N′-isopropyl)amino-6-nitrobenzoyl)-O-(2,6-dichlorobenzyl)tyrosine]	0.1 µM	4 µM
CCCNCCCCN(CCC)c1ccc([N+](=O)[O-])c(C(=O)NC(Cc2ccc(OCc3c(Cl)cccc3Cl)cc2)C(=O)O)c1 (stereo not shown) [Example 4]	0.12 µM	3.7 µM
CC(C)NCCCN(c1ccc([N+](=O)[O-])c(C(=O)NC(Cc2ccc(OCc3c(Cl)cccc3Cl)cc2)C(=O)O)c1)C(C)C (stereo not shown) [Example 3]	0.12 µM	5.5 µM
CCNCCN(CC)c1ccc([N+](=O)[O-])c(C(=O)NC(Cc2ccc(OCc3c(Cl)cccc3Cl)cc2)C(=O)O)c1 (stereo not shown) [Example 7]	0.16 µM	9.4 µM
O=C(NC(Cc1ccc(OCc2c(Cl)cccc2Cl)cc1)C(=O)O)c1ccc(N2CCNCC2)c([N+](=O)[O-])c1 (stereo not shown) [Example 25]	0.75 µM	4 µM
CSc1ncc(Cl)c(C(=O)Nc2ccc(CC(NC(=O)c3cc(N(CCNC(C)C)C(C)C)ccc3[N+](=O)[O-])C(=O)O)cc2)n1 (stereo not shown) [Example 27]	0.0012 µM	0.027 µM
CCCN(C)c1ccc([N+](=O)[O-])c(C(=O)NC(Cc2ccc(OCc3c(Cl)cccc3Cl)cc2)C(=O)O)c1 (stereo not shown) [Example 12]	0.36 µM	4.1 µM
O=C(NC(Cc1ccc(OCc2c(Cl)cccc2Cl)cc1)C(=O)O)c1cc(N2CCC(O)CC2)ccc1[N+](=O)[O-] (stereo not shown) [Example 22]	0.22 µM	4.6 µM
CSc1ncc(Cl)c(C(=O)Nc2ccc(C[C@H](NC(=O)c3cc(N(CCNC(C)C)C(C)C)ccc3[N+](=O)[O-])C(=O)O)cc2)n1 [Example 28]	0.0011 µM	0.023 µM
CC1CN(c2ccc([N+](=O)[O-])c(C(=O)NC(Cc3ccc(OCc4c(Cl)cccc4Cl)cc3)C(=O)O)c2)C(C)CN1 (stereo not shown) [Example 5]	0.14 µM	4.9 µM
CC(C)NCCN(c1ccc([N+](=O)[O-])c(C(=O)NC(Cc2ccc(NC(=O)c3snnc3-c3ccccc3)cc2)C(=O)O)c1)C(C)C (stereo not shown) [Example 26]	0.037 µM	2.4 µM
O=C(NC(Cc1ccc(OCc2c(Cl)cccc2Cl)cc1)C(=O)O)c1cc(N2CCNCC2)ccc1[N+](=O)[O-] (stereo not shown) [Example 8]	0.75 µM	4 µM
O=C(NC(Cc1ccc(OCc2c(Cl)cccc2Cl)cc1)C(=O)O)c1cc(N2CCOCC2)ccc1[N+](=O)[O-] (stereo not shown) [Example 18]	0.14 µM	2.2 µM
CN(CCO)c1ccc([N+](=O)[O-])c(C(=O)NC(Cc2ccc(OCc3c(Cl)cccc3Cl)cc2)C(=O)O)c1 (stereo not shown) [Example 23]	0.066 µM	2.2 µM
